Results from patent US20210087172A1, “FACTOR XIIa INHIBITORS” (UNIVESITY OF LEEDS, priority 2018, published 2021).

Experiments:
Format in all cases: biochemical
FXIIa alpha (Human) = biological target: T1, FXIIa alpha (Human) (Homo sapiens, UniProt P00748); assay: Determination of Factor XIIa inhibition, chromogenic substrate S-2302; conditions: 10 nM FXIIa, 450 μM S-2302, 37° C., pH 7.4; Ki converted from IC50
T1 construct: FXIIa alpha
T1 sequence (P00748 373-615 limits assumed): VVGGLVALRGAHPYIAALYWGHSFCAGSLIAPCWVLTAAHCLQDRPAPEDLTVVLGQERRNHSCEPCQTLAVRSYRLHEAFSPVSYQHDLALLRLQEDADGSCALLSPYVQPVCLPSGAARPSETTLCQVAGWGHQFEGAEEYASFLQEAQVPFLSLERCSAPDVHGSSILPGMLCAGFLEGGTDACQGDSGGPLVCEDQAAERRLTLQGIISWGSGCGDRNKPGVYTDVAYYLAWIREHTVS
T1 sequence (P00748 20-372 partner limits assumed): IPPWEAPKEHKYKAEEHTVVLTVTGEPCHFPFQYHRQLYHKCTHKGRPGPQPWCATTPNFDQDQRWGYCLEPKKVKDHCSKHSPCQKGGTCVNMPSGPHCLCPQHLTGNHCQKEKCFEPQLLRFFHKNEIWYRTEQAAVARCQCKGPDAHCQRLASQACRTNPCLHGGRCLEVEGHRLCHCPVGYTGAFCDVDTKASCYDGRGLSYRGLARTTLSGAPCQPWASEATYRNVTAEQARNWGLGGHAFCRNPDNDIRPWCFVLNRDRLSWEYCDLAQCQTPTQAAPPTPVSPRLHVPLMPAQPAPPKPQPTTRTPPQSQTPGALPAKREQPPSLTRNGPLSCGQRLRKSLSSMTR
Method: (§1) The activities of the compounds of the invention have been determined in vitro using the following assays protocols for the screening of activity of FXIa and other proteases. Each of these assays were performed in a purified system employing the use of chromogenic assays in microplate plate wells. Chromogenic peptide substrates mimicking natural protein substrates are attached via an amide bond to a chromogenic group. Paranitroaniline (pNA) is released from the peptide following catalyses by the proteolytic enzyme; the absorbance increases and can be monitored at 405 nm.
(§2) All compounds were dissolved in 100% (v/v) DMSO to a stock concentration of 10 mM, the highest concentration of compound used in each assay is 500 μM. The final concentrations of DMSO were 5% (v/v) in 50 mM Tris 137 mM NaCl pH 7.4. Where no test compound was added a final concentration of 5% DMSO was employed.
[…] activity was measured using a chromogenic substrate S-2302 (Chromogenix). Various concentrations of compound were incubated with 10 nM of FXIIa and incubated at 37° C. for 10 minutes in 50 mM Tris, 137 mM NaCl, pH 7.4, prior to the addition of a final concentration of 450 μM S-2302 chromogenic substrate. Kinetic readings at 405 nm were monitored every 12 secs for a total duration of 3 hours at 37° C. Gradients of initial rates were determined and employed to calculate IC50 values. Values of IC50 were converted to Ki values based on the formula:
(§3) Ki=IC50/(1+[Substrate]/Km)
The activity of the compounds of the invention has been categorised based on the Ki values, the categories being “*”, “**” and “***”. […] The category refers to compounds with a Ki value of 0.2 μM to 2 μM.

FXa (human) = FXa (human) (Homo sapiens, UniProt P00742); assay: Determination of selectivity: FXa chromogenic assay (S2765 substrate); conditions: fold selectivity for FXIIa over FXa; FXa 5 nM, S2765 350 μM
Method: as §1, §2
(§4) To determine selectivity of test compounds, these test compounds were assayed for inhibitory activity against other serine proteases including FXa and thrombin. Essentially compounds at increasing concentrations were incubated with each enzyme: FXa (5 nM) and thrombin (5 nM), for 10 mins at 37° C. followed the appropriate chromogenic substrate, S2765 (350 μM), and GPR (250 μM) respectively in 50 mM Tris, 137 mM NaCl, pH 7.4. Chromogenic substrates S2765 was from Chromogenix, and GPR from Bachem. Kinetic readings at 405 nm were monitored every 12 secs for a total duration of 3 hours at 37° C. Gradients of initial rates were determined and employed to calculate IC50 values. Values of IC50 were converted to Ki values based on the formula:
as §3
(§5) Where [Substrate] denotes the concentration of substrate used in the assay and Km is the determined value of each enzyme with its own substrate.
The fold selectivity for FXIIa over FXa for the compounds of the invention has been categorised based on the fold selectivity values, the categories being “o”, “oo” and “ooo”. The category “o” refers to fold selectivity values less than 10. The category “oo” refers to a fold selectivity value of 10 to 100. The category “ooo” refers to fold selectivity values greater than 100.

Thrombin (human) = biological target: T2, Thrombin (human) (Homo sapiens, UniProt P00734); assay: Determination of selectivity: thrombin chromogenic assay (GPR substrate); conditions: fold selectivity for FXIIa over thrombin; thrombin 5 nM, GPR 250 μM
T2 construct: FXa (5 nM) and thrombin (5 nM)
Method: as §1, §2, §4, §3, §5
The fold selectivity for FXIIa over thrombin for the compounds of the invention has been categorised based on the fold selectivity values, the categories being “+”, “++” and “+++”. The category “+” refers to fold selectivity values less than 10. The category “++” refers to a fold selectivity value of 10 to 100. The category “+++” refers to fold selectivity values greater than 100.

Sequence of FXa (human) (P00742 235-488 limits assumed): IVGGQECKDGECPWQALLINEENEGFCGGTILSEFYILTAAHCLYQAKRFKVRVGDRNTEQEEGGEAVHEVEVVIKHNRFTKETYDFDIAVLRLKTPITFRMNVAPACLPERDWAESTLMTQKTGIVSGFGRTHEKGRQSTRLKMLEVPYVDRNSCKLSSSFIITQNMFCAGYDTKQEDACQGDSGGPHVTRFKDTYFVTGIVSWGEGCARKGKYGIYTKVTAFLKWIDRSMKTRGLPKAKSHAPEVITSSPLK
Sequence of FXa (human) (P00742 41-179 partner limits assumed): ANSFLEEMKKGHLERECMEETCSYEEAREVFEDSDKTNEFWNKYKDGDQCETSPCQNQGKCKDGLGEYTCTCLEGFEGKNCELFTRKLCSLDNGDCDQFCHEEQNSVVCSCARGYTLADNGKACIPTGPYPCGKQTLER

Ki (FXIIa alpha (Human))	SMILES	FXa (human)/FXIIa alpha (human) fold selectivity (FXa (human))	Thrombin (human)/FXIIa alpha (human) fold selectivity (Thrombin (human))
> 2 µM	Cn1nnc2cc(CNC(=O)[C@@H]3CN(C(=O)OCc4ccccc4)CCN3C(=O)[C@H](N)CCC(=O)N3CCCC3)ccc21 [Compound M05212]	ooo (fold selectivity values greater than 100)	+++ (fold selectivity values greater than 100)
< 0.2 µM	COc1cc(CNC(=O)[C@@H]2CN(C(=O)OCc3ccccc3)CCN2C(=O)[C@H](N)CCc2ccccc2)ccc1CN [Compound M00834]	ooo (fold selectivity values greater than 100)	+++ (fold selectivity values greater than 100)
> 2 µM	CS(=O)(=O)N1CCN(C(=O)[C@H](N)CCc2ccccc2)[C@H](C(=O)NCc2ccc(CN)cc2)C1 [Compound M00838, (2S)-1-[(2R)-2-amino-4-phenylbutanoyl]-N-{[4-(aminomethyl)phenyl]methyl}-4-methanesulfonylpiperazine-2-carboxamide]	o (fold selectivity values less than 10)	+ (fold selectivity values less than 10)
> 2 µM	NCc1ccc(CNC(=O)C2CN(C(=O)Cc3ccccc3)CCN2C(=O)C(N)CCc2ccccc2)cc1 (stereo not drawn) [Compound M00843]	oo (a fold selectivity value of 10 to 100)	+++ (fold selectivity values greater than 100)
> 2 µM	Cn1nnc2cc(CNC(=O)[C@@H]3C[C@@H](c4ccccc4)CCN3C(=O)[C@H](N)CCC(=O)N3CCCC3)ccc21 [Compound M05375]	oo (a fold selectivity value of 10 to 100)	++ (a fold selectivity value of 10 to 100)
< 0.2 µM	N[C@H](CCC(=O)N1CCCC1)C(=O)N1CCN(C(=O)OCc2ccccc2)C[C@H]1C(=O)NCc1cc2cnccc2[nH]1 [Compound M00971]	ooo (fold selectivity values greater than 100)	+++ (fold selectivity values greater than 100)
> 2 µM	Nc1noc2cc(CNC(=O)[C@@H]3CN(C(=O)OCc4ccccc4)CCN3C(=O)[C@H](N)CCc3ccccc3)ccc12 [Compound M05124]	oo (a fold selectivity value of 10 to 100)	+ (fold selectivity values less than 10)
> 2 µM	Cn1nnc2cc(CNC(=O)[C@@H]3CN(C(=O)OCc4ccccc4)CCN3C(=O)[C@H]3C[C@@H](c4ccccc4)CN3)ccc21 [Compound M05276]	oo (a fold selectivity value of 10 to 100)	++ (a fold selectivity value of 10 to 100)
0.2 to 2 µM	O=C(NCc1cc2ccncc2[nH]1)[C@@H]1CN(C(=O)OCc2ccccc2)CCN1C(=O)[C@H]1C[C@@H](c2ccccc2)CN1 [Compound M00950]	oo (a fold selectivity value of 10 to 100)	++ (a fold selectivity value of 10 to 100)
> 2 µM	Cn1nnc2cc(CNC(=O)[C@@H]3CN(C(=O)OCc4ccccc4)CCN3C(=O)[C@H](N)CCc3ccccc3)ccc21 [Compound M05098, (S)-4-((R)-2-Amino-4-phenyl-butyryl)-3-[(1-methyl-1H-benzotriazol-5-ylmethyl)-carbamoyl]-piperazine-1-carboxylic acid benzyl ester]	oo (a fold selectivity value of 10 to 100)	++ (a fold selectivity value of 10 to 100)
> 2 µM	Cc1cc(CNC(=O)[C@@H]2CN(C(=O)OCc3ccccc3)CCN2C(=O)[C@H](N)CCc2ccccc2)cc(N)n1 [Compound M00858]	oo (a fold selectivity value of 10 to 100)	++ (a fold selectivity value of 10 to 100)
> 2 µM	Nc1cc(CNC(=O)[C@@H]2CN(C(=O)OCc3ccccc3)CCN2C(=O)[C@H](N)CCc2ccccc2)ccn1 [Compound M00832]	oo (a fold selectivity value of 10 to 100)	++ (a fold selectivity value of 10 to 100)

SMILES	Ki (FXIIa alpha (Human))	FXa (human)/FXIIa alpha (human) fold selectivity (FXa (human))	Thrombin (human)/FXIIa alpha (human) fold selectivity (Thrombin (human))
Cc1ccc(OC(=O)N2CCN(C(=O)[C@H](N)CCc3ccccc3)[C@H](C(=O)NCc3ccc4c(c3)nnn4C)C2)cc1 [Compound M00934]	> 2 µM	oo (a fold selectivity value of 10 to 100)	++ (a fold selectivity value of 10 to 100)
Cn1nnc2cc(CNC(=O)[C@@H]3CN(C(=O)Oc4ccccc4)CCN3C(=O)[C@H](N)CCc3ccccc3)ccc21 [Compound M00871]	> 2 µM	oo (a fold selectivity value of 10 to 100)	++ (a fold selectivity value of 10 to 100)
Cn1nnc2cc(CNC(=O)[C@@H]3CN(C(=O)Oc4ccc(Cl)cc4)CCN3C(=O)[C@H](N)CCc3ccccc3)ccc21 [Compound M00933]	> 2 µM	oo (a fold selectivity value of 10 to 100)	++ (a fold selectivity value of 10 to 100)
